Tests used:
[1] = tested on: cattle ticks (Boophilus microplus) strane Parhurst, SP-resistant; test: Boophilus microplus dip test (BOOPMI Dip); type: in vivo; conditions: 100 ppm, egg deposition after 7 days
Source text: Boophilus microplus—Diptest (BOOPMI Dip)
Test animal: cattle ticks (Boophilus microplus) strane Parhurst, SP-resistant
(§1) Solvent: dimethyl sulfoxide
This compound solution is pipetted into tubes. 8-10 engorged, adult, female cattle ticks (Boophilus microplus) are placed in perforated tubes. These tubes are immersed in the aqueous compound solution until the ticks are completely moistened. After the liquid has drained off, the ticks are transferred to a filter paper in a plastic tray and stored in a climate chamber.
(§2) After 7 days egg deposition of fertile eggs is monitored. Eggs where fertility is not visible are stored in a climate chamber till hatching after about 42 days. An efficacy of 100% means all eggs are infertile; 0% means all eggs are fertile.

[2] = tested on: adult house flies (Musca domestica); test: Musca domestica test (MUSCDO); type: in vivo; conditions: Musca domestica, 48 h, read-out: mortality in %
Source text: Musca domestica—Test (MUSCDO)
as §1
10 adult house flies (Musca domestica) are transferred into a container, containing a sponge soaked with a mixture of sugar solution and compound solution of the desired concentration.

[3] = tested on: adult engorged female ticks (Boophilus microplus); test: Boophilus microplus injection test (BOOPMI Inj); type: in vivo; conditions: 20 μg/animal, egg deposition after 7 days
Description: Boophilus microplus—Injectiontest (BOOPMI Inj)
as §1
Five adult engorged female ticks (Boophilus microplus) are injected with 1 μl compound solution into the abdomen. The ticks are transferred into replica plates and incubated in a climate chamber.
as §2

[4] = tested on: two spotted spidermite (Tetranychus urticae); test: Tetranychus urticae spray test OP-resistant (French bean leaf disks); type: in vivo; conditions: Tetranychus urticae, foliar, 144 h, read-out: mortality in %
Description: Tetranychus urticae—Spray Test OP-Resistant
(§3) Solvent: 78.0 parts by weight acetone
(§4) • 1.5 parts by weight dimethylformamide Emulsifier: alkylarylpolyglycol ether
French bean (Phaseolus vulgaris) leaf disks which are heavily infested with all stages of the two spotted spidermite (Tetranychus urticae) are sprayed with a preparation of the active ingredient of the desired concentration.
(§5) After 6 days mortality in % is determined.

[5] = tested on: mustard beetle larvae (Phaedon cochleariae); test: Phaedon cochleariae spray test (cabbage leaves); conditions: in Brassica oleracea, 168 h, read-out: mortality in %
[6] = tested on: adult unfed cat fleas (Ctenocephalides felis); test: Ctenocephalides felis oral test (CTECFE); type: in vivo; conditions: 48 h, read-out: mortality in %
Description: Ctenocephalides felis—Oral Test (CTECFE)
as §1
Approximately 20 adult unfed cat fleas (Ctenocephalides felis) are placed in flea chambers. The blood chamber, sealed with parafilm on the bottom, are filled with cattle blood supplied with compound solution and placed on the gauze covered top of the flea chamber, so that the fleas are able to suck the blood. The blood chamber is heated to 37° C. whereas the flea chamber is kept at room temperature.

[7] = tested on: two-spotted spider mite (Tetranychus urticae); test: Tetranychus urticae spray test; OP-resistant (bean plants); type: in vivo; conditions: Tetranychus urticae, 168 h, read-out: mortality in %
[8] = logP determination by HPLC on reversed-phase column (C18), EEC Directive 79/831 Annex V.A8; type: physicochemical; conditions: reversed-phase C18, acetonitrile/water with formic acid
[9] = tested on: mustard beetle larvae (Phaedon cochleariae); test: Phaedon cochleariae spray test (Chinese cabbage leaf disks); type: in vivo; conditions: foliar, 168 h, read-out: mortality in %
Source text: Phaedon cochleariae—Spray Test
Solvent: 78.0 parts by weight of acetone
• 1.5 parts by weight of dimethylformamide Emulsifier: alkylarylpolyglycol ether
Chinese cabbage (Brassica pekinensis) leaf disks are sprayed with a preparation of the active ingredient of the desired concentration.

[10] = tested on: green peach aphid (Myzus persicae); test: Myzus persicae spray test (Chinese cabbage leaf disks); type: in vivo; conditions: Myzus persicae, foliar, 144 h, read-out: mortality in %
Description: Myzus persicae—Spray Test
as §3, §4
Chinese cabbage (Brassica pekinensis) leaf disks infected with all instars of the green peach aphid (Myzus persicae), are sprayed with a preparation of the active ingredient of the desired concentration.
as §5

[11] = tested on: Tick nymphs (Amblyomma hebraeum); test: Amblyomma hebraeum test (AMBYHE); type: in vivo; conditions: Amblyomma hebraeum, 1008 h, read-out: mortality in %
Description: Amblyomma hebraeum—Test (AMBYHE)
as §1
Tick nymphs (Amblyomma hebraeum) are placed in perforated plastic beakers and immersed in the aqueous compound solution for one minute. Ticks are transferred to a filter paper in a petridish and incubated in a climate chamber.

[12] = tested on: larvae of the Australian sheep blowfly (Lucilia cuprina); test: Lucilia cuprina test (LUCICU); type: in vivo; conditions: Lucilia cuprina, 48 h, read-out: mortality in %
Description: Lucilia cuprina—Test (LUCICU)
as §1
10 mg active compound are dissolved in 0.5 ml Dimethylsulfoxid. Serial dilutions are made to obtain the desired rates.
Approximately 20 […] instar larvae of the Australian sheep blowfly (Lucilia cuprina) are transferred into a test tube containing minced horse meat and compound solution of the desired concentration.

[13] = tested on: fall armyworm larvae (Spodoptera frugiperda); test: Spodoptera frugiperda spray test (maize leaf sections); type: in vivo; conditions: Spodoptera frugiperda, 168 h, read-out: mortality in %
Source text: Spodoptera frugiperda—Spray Test
as §3, §4
Maize (Zea mays) leaf sections are sprayed with a preparation of the active ingredient of the desired concentration. Once dry, the leaf sections are infested with fall armyworm larvae (Spodoptera frugiperda).

With `CSc1c(C(F)(F)C(F)(F)F)nn(C)c1-n1cc(-c2ccc(Cl)c(C(=O)NC3(C#N)CC3)c2)cn1` [Example I-02, 2-chloro-N-(1-cyanocyclopropyl)-5-[2′-methyl-4′-(methylsulfanyl)-5′-(pentafluoroethyl)-2′H-1,3′-bipyrazol-4-yl]benzamide] as the molecule, how does the “efficacy (infertile eggs)” value [1] read?
Its value is 100%.

And the mortality at 100 ppm [2]?
Its mortality at 100 ppm is 90%.

And the “efficacy (infertile eggs)” value [3]?
Its value is 100%.

And the mortality at 100 g/ha [4]?
The mortality at 100 g/ha was 100%.

And the mortality at 4 ppm [5]?
The mortality at 4 ppm was 100%.

What about the mortality at 100 ppm [6] of the same molecule?
The mortality at 100 ppm was 100%.

What about the mortality at 4 ppm [7] of the same molecule?
The mortality at 4 ppm was 100%.

What about the logP [8] of the same molecule?
The logP was 3.56.

And the chromatographic logP ([8]; reversed-phase C18 HPLC column)?
The chromatographic logP was 3.58.

And the mortality at 100 g/ha [9]?
The mortality at 100 g/ha was 100%.

What about the mortality at 100 g/ha [10] of the same molecule?
The mortality at 100 g/ha was 100%.

And the mortality at 100 ppm [11]?
Its mortality at 100 ppm is 100%.

And the mortality at 100 ppm [12]?
Its mortality at 100 ppm is 100%.

What about the mortality at 100 g/ha [13] of the same molecule?
Its mortality at 100 g/ha is 100%.

— patent publication US9936699B2, “Halogen-substituted compounds” (BAYER CROPSCIENCE AKTIENGESELLSCHAFT, priority 2014, dated 2018)
